# Measurements from the supplement of paper PMC10307832.
# Key:
# Test in all cases: relative viability (nuclei count vs DMSO), 5 days (fraction); higher = more cells survive
# NCI-H441 = system: NCI-H441
# In short: (§1)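 Lung cancer cell lines were seeded in 1536-well plates and dosed by pin tool the next day, with either a single drug or a fixed anchor-drug dose combined with five library-drug doses (not always all listed) spaced in √10 steps. Five days later, one step fixed the cells and stained their nuclei (final 0.05% Triton X-100, 1% formaldehyde, 1 ug/ml Hoechst), and nuclei were counted on 4× images. Relative viability is the nuclei count in treated wells divided by the count in vehicle wells, and each value is the median of duplicate plates.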
# 201T = system: 201T
# In short: as §1
# SK-LU-1 = system: SK-LU-1
# In short: as §1
# NCI-H650 = system: NCI-H650
# In short: as §1
# LCLC-97TM1 = system: LCLC-97TM1
# In short: as §1
# NCI-H1355 = system: NCI-H1355
# In short: as §1
# SW 1573 = system: SW 1573
# In short: as §1
# NCI-H1563 = system: NCI-H1563
# In short: as §1
# NCI-H1651 = system: NCI-H1651
# In short: as §1
# NCI-H838 = system: NCI-H838
# In short: as §1
# NCI-H322M = system: NCI-H322M
# In short: as §1
# NCI-H2347 = system: NCI-H2347
# In short: as §1
# BEN = system: BEN
# In short: as §1
# NCI-H3122 = system: NCI-H3122
# In short: as §1
# HOP-62 = system: HOP-62
# In short: as §1
# LOU-NH91 = system: LOU-NH91
# In short: as §1
# NCI-H2126 = system: NCI-H2126
# In short: as §1
# NCI-H1793 = system: NCI-H1793
# In short: as §1
# NCI-H1944 = system: NCI-H1944
# In short: as §1
# NCI-H1395 = system: NCI-H1395
# In short: as §1
# NCI-H1915 = system: NCI-H1915
# In short: as §1
# CAL-12T = system: CAL-12T
# In short: as §1
structure (smiles),measurement,setting,value
CN1CCN(CCOc2cc(OC3CCOCC3)c3c(Nc4c(Cl)ccc5c4OCO5)ncnc3c2)CC1 [Saracatinib] + CCNC(=O)c1noc(-c2cc(C(C)C)c(O)cc2O)c1-c1ccc(CN2CCOCC2)cc1 [Luminespib] (partner 0.01 µM),relative viability,NCI-H441; first compound 0.02 µM,0.44
same,relative viability,NCI-H441; first compound 0.2 µM,0.268
same,relative viability,NCI-H441; first compound 0.6325 µM,0.286
same,relative viability,NCI-H441; first compound 2 µM,0.247
same,relative viability,201T; first compound 0.02 µM,1.05
same,relative viability,201T; first compound 0.2 µM,0.956
same,relative viability,201T; first compound 0.6325 µM,0.965
same,relative viability,201T; first compound 2 µM,0.832
same,relative viability,SK-LU-1; first compound 0.02 µM,0.232
same,relative viability,SK-LU-1; first compound 0.2 µM,0.139
same,relative viability,SK-LU-1; first compound 0.6325 µM,0.145
same,relative viability,SK-LU-1; first compound 2 µM,0.129
same,relative viability,NCI-H650; first compound 0.02 µM,0.685
same,relative viability,NCI-H650; first compound 0.2 µM,0.613
same,relative viability,NCI-H650; first compound 0.6325 µM,0.87
same,relative viability,NCI-H650; first compound 2 µM,0.68
same,relative viability,LCLC-97TM1; first compound 0.02 µM,0.8
same,relative viability,LCLC-97TM1; first compound 0.2 µM,0.47
same,relative viability,LCLC-97TM1; first compound 0.6325 µM,0.725
same,relative viability,LCLC-97TM1; first compound 2 µM,0.444
same,relative viability,NCI-H1355; first compound 0.02 µM,0.732
same,relative viability,NCI-H1355; first compound 0.2 µM,0.544
same,relative viability,NCI-H1355; first compound 0.6325 µM,0.697
same,relative viability,NCI-H1355; first compound 2 µM,0.634
same,relative viability,SW 1573; first compound 0.02 µM,0.195
same,relative viability,SW 1573; first compound 0.2 µM,0.217
same,relative viability,SW 1573; first compound 0.6325 µM,0.374
same,relative viability,SW 1573; first compound 2 µM,0.15
same,relative viability,NCI-H1563; first compound 0.02 µM,0.481
same,relative viability,NCI-H1563; first compound 0.2 µM,0.488
same,relative viability,NCI-H1563; first compound 0.6325 µM,0.537
same,relative viability,NCI-H1563; first compound 2 µM,0.525
same,relative viability,NCI-H1651; first compound 0.02 µM,0.912
same,relative viability,NCI-H1651; first compound 0.2 µM,0.516
same,relative viability,NCI-H1651; first compound 0.6325 µM,0.965
same,relative viability,NCI-H1651; first compound 2 µM,0.837
same,relative viability,NCI-H838; first compound 0.02 µM,0.264
same,relative viability,NCI-H838; first compound 0.2 µM,0.411
same,relative viability,NCI-H838; first compound 0.6325 µM,0.307
same,relative viability,NCI-H838; first compound 2 µM,0.271
same,relative viability,NCI-H322M; first compound 0.02 µM,0.867
same,relative viability,NCI-H322M; first compound 0.2 µM,0.711
same,relative viability,NCI-H322M; first compound 0.6325 µM,0.682
same,relative viability,NCI-H322M; first compound 2 µM,0.378
same,relative viability,NCI-H2347; first compound 0.02 µM,0.372
same,relative viability,NCI-H2347; first compound 0.2 µM,0.411
same,relative viability,NCI-H2347; first compound 0.6325 µM,0.774
same,relative viability,NCI-H2347; first compound 2 µM,0.416
same,relative viability,BEN; first compound 0.02 µM,0.421
same,relative viability,BEN; first compound 0.6325 µM,0.418
same,relative viability,BEN; first compound 2 µM,0.401
same,relative viability,NCI-H3122; first compound 0.02 µM,0.0855
same,relative viability,NCI-H3122; first compound 0.2 µM,0.103
same,relative viability,NCI-H3122; first compound 0.6325 µM,0.0549
same,relative viability,NCI-H3122; first compound 2 µM,0.076
same,relative viability,HOP-62; first compound 0.02 µM,0.864
same,relative viability,HOP-62; first compound 0.2 µM,0.852
same,relative viability,HOP-62; first compound 0.6325 µM,1.04
same,relative viability,HOP-62; first compound 2 µM,1.02
same,relative viability,LOU-NH91; first compound 0.02 µM,0.356
same,relative viability,LOU-NH91; first compound 0.2 µM,0.29
same,relative viability,LOU-NH91; first compound 0.6325 µM,0.385
same,relative viability,LOU-NH91; first compound 2 µM,0.286
same,relative viability,NCI-H2126; first compound 0.02 µM,0.878
same,relative viability,NCI-H2126; first compound 0.2 µM,0.895
same,relative viability,NCI-H2126; first compound 0.6325 µM,0.852
same,relative viability,NCI-H2126; first compound 2 µM,0.655
same,relative viability,NCI-H1793; first compound 0.02 µM,0.2
same,relative viability,NCI-H1793; first compound 0.6325 µM,0.173
same,relative viability,NCI-H1793; first compound 2 µM,0.177
same,relative viability,NCI-H1944; first compound 0.02 µM,0.826
same,relative viability,NCI-H1944; first compound 0.6325 µM,0.846
same,relative viability,NCI-H1944; first compound 2 µM,0.459
same,relative viability,NCI-H1395; first compound 0.02 µM,0.621
same,relative viability,NCI-H1395; first compound 0.2 µM,0.634
same,relative viability,NCI-H1395; first compound 0.6325 µM,0.79
same,relative viability,NCI-H1395; first compound 2 µM,0.62
same,relative viability,NCI-H1915; first compound 0.02 µM,0.742
same,relative viability,NCI-H1915; first compound 0.2 µM,0.703
same,relative viability,NCI-H1915; first compound 0.6325 µM,0.872
same,relative viability,NCI-H1915; first compound 2 µM,0.654
same,relative viability,CAL-12T; first compound 0.02 µM,0.335
same,relative viability,CAL-12T; first compound 0.2 µM,0.407
same,relative viability,CAL-12T; first compound 0.6325 µM,0.365
same,relative viability,CAL-12T; first compound 2 µM,0.268
